Test results published in patent publication US20040006026A1, “Avilamycin derivatives” (Combinature Biopharm AG, priority 2001, published 2004).
Like-named read-outs stand apart in the source and are kept apart here. Blank lines part the entries; values can stand above or below the compound they belong to.

Experiments:
Bacillus subtilis = test: broth microdilution antimicrobial spectrum (NCCLS); assay type: cell-based
Method: (§1) The antimicrobial spectrum of gavibamycin A3 was determined and compared with that of avilamycin A. In this context, the “broth microdilution” method in accordance with the regulations of the national committee for clinical laboratory standards (NCCLS) was used.

[1] = test system: Enterococcus faecalis ATCC29212; test: broth microdilution antimicrobial spectrum (NCCLS); assay type: cell-based
Method: as §1

[2] = test system: Enterococcus faecalis H-7-6; test: broth microdilution antimicrobial spectrum (NCCLS); assay type: cell-based
Method: as §1

[3] = test system: Staphylococcus aureus ATCC29213; test: broth microdilution antimicrobial spectrum (NCCLS); assay type: cell-based
Method: as §1

[4] = test system: Staphylococcus aureus ATCC6538P; test: broth microdilution antimicrobial spectrum (NCCLS); assay type: cell-based
Method: as §1

[5] = test system: Staphylococcus aureus ATCC6538; test: broth microdilution antimicrobial spectrum (NCCLS); assay type: cell-based
Method: as §1

[6] = test system: Staphylococcus aureus Q48-1.2.1; test: broth microdilution antimicrobial spectrum (NCCLS); assay type: cell-based
Method: as §1

[7] = test system: Streptococcus pneumoniae ATCC49619; test: broth microdilution antimicrobial spectrum (NCCLS); assay type: cell-based
Method: as §1

[8] = test system: various Staphylococcus aureus strains; test: preliminary tests / first MIC experiments; assay type: cell-based
Method: as §1
(§2) Furthermore, gavibamycin A3 was tested with regard to its antibiotic effect. […] The non-chlorinated gavibamycin derivatives also have antibiotic activity.

[9] = hydrophilia from Rf values / retention factors of TLC and HPLC analysis; assay type: physicochemical
Method: TLC analysis: Streptomyces viridochromogenes Tü57 and the mutants GW-4 and GW4-AM1 were incubated for three days. The cultures were filtered off, and the filtrate was applied to a solid-phase extraction cartridge (SepPakC18, Waters). The cartridge was eluted with a gradient between 10% and 100% methanol in water. Avilamycin derivatives eluted with the fraction that contains 60-70% methanol. After extraction with ethyl acetate and withdrawal of the solvent, the avilamycin derivatives were dissolved in methanol once again and measured by means of TLC on silica gel plates (silica gel 60 F254, Merck), with methylene chloride/methanol (9:1, v/v) as the solvent. Avilamycin derivatives had been detected after treatment with anisaldehyde/H2SO4.
An analytical HPLC-UV was carried out on a Hewlett Packard 1090 Liquid Chromatograph with a photodiode array detector and a HP-ODS-Hypersil 5 μm, 200×2 mm column. The sequence of the solutions was as follows: Solution A, 0.04M (NH4)2HPO4 pH 7.0 buffer; Solution B, 100% methanol; a non-linear gradient, with 30-62% of Solution B distributed over a period of 25 min at a flow rate of 0.2 mL/min.
as §2

[10] = parenteral administration to a patient, tolerance; assay type: in vivo
Method: 5 g gavibamycin A3 are dissolved in 1 l water for injection purposes, if necessary using a pharmaceutically well tolerated solubility enhancer, at room temperature, and subsequently adjusted to isotonic conditions for injection purposes by adding water-free glucose.
In an average patient, with a body weight of approximately 65 kg, 0.5 mL of this solution is administered, in other words 2.5 mg or approximately […].

[11] = test system: multiresistant Staphylococcus aureus strains; settings: Zähner, 1999; cited from earlier work

- hydrophilia compared with avilamycin A ([9]; listed as gavibamycin): much more hydrophilic
Compound: COCC1OC(OC2OCC3OC4(OC3C2OC(=O)C(C)C)OC(C)C(O)(C(C)O)C2OCOC24)C(OC)C(O)C1OC1OC(C)C(OC)C(OC2CC3(C)OC4(CC(O)C(OC5CC(O)C(OC(=O)c6c(C)c(Cl)c(O)c(Cl)c6O)C(C)O5)C(C)O4)OC3C(C)O2)C1O (centres unmarked) [gavibamycin A3]
- antibiotic activity (Bacillus subtilis): demonstrate antibiotic activity
- antibiotic activity [1]: demonstrate antibiotic activity
- antibiotic activity [2]: demonstrate antibiotic activity
- antibiotic activity [3]: demonstrate antibiotic activity
- antibiotic activity [4]: demonstrate antibiotic activity
- antibiotic activity [5]: demonstrate antibiotic activity
- antibiotic activity [6]: demonstrate antibiotic activity
- antibiotic activity [7]: demonstrate antibiotic activity
- activity against various Staphylococcus aureus strains compared with avilamycin A [8]: somewhat stronger activity
- activity against various Staphylococcus aureus strains compared with avilamycin A ([8]; listed as gavibamycin): somewhat more active than avilamycin A
- hydrophilia compared with avilamycin A [9]: somewhat more hydrophilic than avilamycin A
- tolerance of higher dosage ([10]; human, in vivo): toxicologically unproblematic and was well tolerated
- tolerance of the administered dose ([10]; patient approx. 65 kg, 0.5 mL of 5 g/l solution, 2.5 mg, parenteral): well tolerated by the patient

Compound: COC[C@H]1O[C@@H](OC2OC[C@@H]3O[C@]4(O[C@H]3[C@H]2OC(=O)C(C)C)O[C@H](C)[C@@](O)(C(C)=O)[C@@H]2OCO[C@H]24)[C@@H](OC)[C@@H](O)[C@@H]1O[C@@H]1O[C@H](C)[C@H](OC)[C@H](O[C@H]2C[C@@]3(C)OC4(C[C@@H](O)[C@H](O[C@H]5C[C@@H](O)[C@H](OC(=O)c6c(C)c(Cl)c(O)c(Cl)c6OC)[C@@H](C)O5)[C@@H](C)O4)O[C@@H]3[C@@H](C)O2)[C@H]1O (some centres unmarked) [avilamycin A, reference compound]
- antibiotic activity (Bacillus subtilis): demonstrate antibiotic activity
- antibiotic activity [1]: demonstrate antibiotic activity
- antibiotic activity [2]: demonstrate antibiotic activity
- antibiotic activity [3]: demonstrate antibiotic activity
- antibiotic activity [4]: demonstrate antibiotic activity
- antibiotic activity [5]: demonstrate antibiotic activity
- antibiotic activity [6]: demonstrate antibiotic activity
- antibiotic activity [7]: demonstrate antibiotic activity
- activity against multiresistant Staphylococcus aureus strains [11]: excellent activity
